Assay results from patent US11419878B2, “Medicine obtained by combining FXR agonist and ARB” (Intercept Pharmaceuticals, Inc., priority 2016, dated 2022).

What was measured:
[1] = system: α-smooth muscle actin (α-SMA); assay: Rat NASH model, immunohistological staining of liver sections with α-SMA antibody (HSC activation); format: in vivo; details: OLETF rats, PS 8 weeks, obeticholic acid 30 mg/kg/day and/or losartan 30 mg/kg/day oral; for α-SMA index (α-SI) compared to the positive control group: p<0.01
Procedure: Using the liver sections from the rats in the various groups obtained in working example 1, an immunohistochemical study by immunohistological staining with α-smooth muscle actin (α-SMA) antibody and a quantitative analysis of transforming growth factor-β1 TGF-β1) and collagen (α1(I) procollagen) mRNA expression were conducted. α-SMA is known to be an indicator (marker) of activation of hepatic stellate cells (HSCs) (also known as hepatic star cells). Moreover, activation of hepatic stellate cells (HSC), overproduction of TGF-β1 (a fibrosis-promoting cytokine) accompanying said activation, and overproduction of extracellular matrix components such as collagen are thought to play a central role in the mechanism of progressive hepatic fibrosis in NASH. For this reason, mRNA expression of TGF-β1 and collagen (α1(I) procollagen) can be a fibrosis indicator (marker).
Using the same method as described under [Histological analysis] in working example 1 above, except that immunohistological staining with α-SMA antibody was used instead of Sirius Red staining, a comparison of the micrographs among the various groups and a semiquantitative analysis of the immunohistochemical characteristics of the collected stained section images were carried out, and the blocking effect of obeticholic acid and losartan (administration groups, combined administration group) on HSC activation in the progression of hepatic fibrosis was evaluated.

[2] = system: C57Bl/6J mice fed a choline-deficient, amino acid-defined, high-fat diet (CDAHFD); assay: Murine NASH model (CDAHFD-fed mice), H&E histology: liver cell swelling, fatty degeneration, NAS; format: in vivo, mouse; details: obeticholic acid 30 mg/kg/day and/or losartan 30 mg/kg/day oral, 3 weeks from 2.5 weeks of diet
Excerpt: The accepted pathological diagnostic criterion for NASH is “observation of liver cell ballooning accompanied by inflammation in addition to large-droplet hepatic steatosis.” Matteoni et al. conducted a long-term follow-up study of patients with NAFLD, classifying the disease based on pathology findings into 4 types (type 1: fatty liver alone, type 2: fat accumulation plus inflammatory cell infiltration, type 3: fat accumulation plus ballooning hepatocyte degeneration, type 4: fat accumulation/ballooning hepatocyte degeneration plus Mallory-Denk bodies or fibrosis). […] In order to reduce differences among individual observers and institutions, the Nonalcoholic Steatohepatitis Clinical Research Network has proposed a pathodiagnostic scoring system in which the extent of fatty degeneration, inflammation, and hepatocyte ballooning is scored (NAS: NAFLD Activity Score) (Matteoni C A, Younossi Z M, Gramlich T, Boparai N, Liu Y C, McCullough A J: Nonalcoholic fatty liver disease: A spectrum of clinical and pathological severity. Gastroenterology, 116; 1413-1419, 1999). The pathodiagnostic standards making up the NASH score were evaluated using the following animal model, and the individual and combined effects of an FXR agonist (obeticholic acid) and an ARB (losartan) were studied. […]

SMILES | increase in activated hepatic stellate cells (Ac-HSCs), micrographs of α-SMA stained sections [1] | α-SMA index (α-SI) compared to the positive control group [1] | liver cell swelling (positive area rate, improvement) [2]
CCCCc1nc(Cl)c(CO)n1Cc1ccc(-c2ccccc2-c2nn[nH]n2)cc1 [losartan] | moderately inhibited | moderate but significant decreases | no improving tendency whatsoever
CC[C@H]1[C@@H](O)[C@@H]2[C@H](CC[C@]3(C)[C@@H]([C@H](C)CCC(=O)O)CC[C@@H]23)[C@@]2(C)CC[C@@H](O)C[C@@H]12 [obeticholic acid, 3α,7α-dihydroxy-6α-ethyl-5β-cholan-24-oic acid] | moderately inhibited | moderate but significant decreases | tended to be inhibited
